From patent publication US20260262643A1, “HERBICIDAL BENZOXAZINES” (FMC CORPORATION, priority 2022, published 2026)

Columns and labels:
goosegrass [1] = assay: Test A preemergence; format: in vivo, Eleusine indica
Outline: (§1)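 Plants were grown in loam and sand and treated preemergence or postemergence (one- to two-leaf stage, 2–10 cm) with compound in solvent plus surfactant. Response was scored against untreated controls after 10 greenhouse days, where 0 means no effect and 100 complete control.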

foxtail, giant [2] = assay: Test A preemergence; format: in vivo, Setaria faberi
Outline: as §1

ryegrass, Italian [3] = assay: Test A postemergence; format: in vivo, Lolium multiflorum; conditions: postemergence, 10 days
Outline: as §1

blackgrass [4] = assay: Test A postemergence; format: in vivo, Alopecurus myosuroides; conditions: postemergence, 10 days
Outline: as §1

soybean [5] = assay: Test A preemergence; format: in vivo, Glycine max
Outline: as §1

pigweed, palmer [6] = assay: Test A preemergence; format: in vivo, Amaranthus palmeri
Outline: as §1

blackgrass [7] = assay: Test A preemergence; format: in vivo, Alopecurus myosuroides
Outline: as §1

foxtail, giant [8] = assay: Test A postemergence; format: in vivo, Setaria faberi; conditions: postemergence, 10 days
Outline: as §1

rice = assay: Test B flooded paddy test; format: in vivo, Oryza sativa; conditions: 250 g ai/ha, Flood, 13 days, 0 to 100 scale (0 no effect, 100 complete control)
Outline: (§2)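 Each species was raised to the 2-leaf stage. At treatment, each pot received floodwater 3 cm deep, with the chemical delivered into the water. Greenhouse holding followed for 13 days, then percent control was estimated visually versus untreated pots.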

corn [9] = assay: Test A postemergence; format: in vivo, Zea mays; conditions: postemergence, 10 days
Outline: as §1

barnyardgrass = assay: Test B flooded paddy test; format: in vivo, Echinochloa crus-galli; conditions: 250 g ai/ha, Flood, 13 days, 0 to 100 scale (0 no effect, 100 complete control)
Outline: as §2

kochia [10] = assay: Test A postemergence; format: in vivo, Bassia scoparia; conditions: postemergence, 10 days
Outline: as §1

ragweed [11] = assay: Test A postemergence; format: in vivo, Ambrosia artemisiifolia; conditions: postemergence, 10 days
Outline: as §1

wheat [12] = assay: Test A preemergence; format: in vivo, Triticum aestivum
Outline: as §1

ducksalad = assay: Test B flooded paddy test; format: in vivo, Heteranthera limosa; conditions: 250 g ai/ha, Flood, 13 days, 0 to 100 scale (0 no effect, 100 complete control)
Outline: as §2

ragweed [13] = assay: Test A preemergence; format: in vivo, Ambrosia artemisiifolia
Outline: as §1

corn [14] = assay: Test A preemergence; format: in vivo, Zea mays
Outline: as §1

goosegrass [15] = assay: Test A postemergence; format: in vivo, Eleusine indica; conditions: postemergence, 10 days
Outline: as §1

wheat [16] = assay: Test A postemergence; format: in vivo, Triticum aestivum; conditions: postemergence, 10 days
Outline: as §1

oat, wild [17] = assay: Test A postemergence; format: in vivo, Avena fatua; conditions: postemergence, 10 days
Outline: as §1

ryegrass, Italian [18] = assay: Test A preemergence; format: in vivo, Lolium multiflorum
Outline: as §1

galium = assay: Test A postemergence; format: in vivo, Galium aparine; conditions: postemergence, 10 days
Outline: as §1

soybean [19] = assay: Test A postemergence; format: in vivo, Glycine max; conditions: postemergence, 10 days
Outline: as §1

kochia [20] = assay: Test A preemergence; format: in vivo, Bassia scoparia
Outline: as §1

horseweed = assay: Test A postemergence; format: in vivo, Erigeron canadensis; conditions: postemergence, 10 days
Outline: as §1

oat, wild [21] = assay: Test A preemergence; format: in vivo, Avena fatua
Outline: as §1

sedge, umbrella = assay: Test B flooded paddy test; format: in vivo, Cyperus difformis; conditions: 250 g ai/ha, Flood, 13 days, 0 to 100 scale (0 no effect, 100 complete control)
Outline: as §2

pigweed, palmer [22] = assay: Test A postemergence; format: in vivo, Amaranthus palmeri; conditions: postemergence, 10 days
Outline: as §1

[23] = 125 g ai/ha, visual injury after 10 days, 0 to 100 scale, 0 is no effect, 100 is complete control
[24] = 500 g ai/ha, 0 to 100 scale (0 no effect, 100 complete control), 10 days
[25] = 125 g ai/ha, 0 to 100 scale, 0 no effect, 100 complete control
[26] = 500 g ai/ha, visual injury, 0 to 100 scale (0 no effect, 100 complete control)

Cc1ccc(-n2cnc(C3CCC3)n2)cc1C(=O)N1C[C@H](C)Oc2c(C)cccc21 [Compound 97]
0: Plant response rating, Rice (rice) | Plant response rating, Barnyardgrass (barnyardgrass) | Plant response rating, Ducksalad (ducksalad) | Plant response rating, Sedge, Umbrella (sedge, umbrella)
90: Foxtail, Giant plant response rating (foxtail, giant [8]; [25]) | Plant response rating, Foxtail, Giant (foxtail, giant [8]; [26]) | Plant response rating, Goosegrass (goosegrass [15]; [26]) | Plant response rating, Horseweed (horseweed; [26]) | Plant response rating, Oat, Wild (oat, wild [21]; [23]) | Plant response rating, Oat, Wild (oat, wild [21]; [24]) | Pigweed, Palmer plant response rating (pigweed, palmer [22]; [25])
30: Blackgrass plant response rating (blackgrass [4]; [25]) | Corn plant response rating (corn [9]; [25]) | Plant response rating, Ragweed (ragweed [13]; [23]) | Oat, Wild plant response rating (oat, wild [17]; [25]) | Horseweed plant response rating (horseweed; [25])
60: Plant response rating, Kochia (kochia [20]; [23])
50: Ragweed plant response rating (ragweed [11]; [25])
20: Plant response rating, Corn (corn [14]; [24]) | Wheat plant response rating (wheat [16]; [25])
10: Plant response rating, Blackgrass (blackgrass [7]; [23]) | Plant response rating, Wheat (wheat [12]; [23]) | Plant response rating, Corn (corn [14]; [23])
100: Plant response rating, Goosegrass (goosegrass [1]; [23]) | Plant response rating, Goosegrass (goosegrass [1]; [24]) | Plant response rating, Foxtail, Giant (foxtail, giant [2]; [23]) | Plant response rating, Foxtail, Giant (foxtail, giant [2]; [24]) | Plant response rating, Soybean (soybean [5]; [24]) | Plant response rating, Pigweed, Palmer (pigweed, palmer [6]; [23]) | Plant response rating, Pigweed, Palmer (pigweed, palmer [6]; [24]) | Plant response rating, Kochia (kochia [10]; [26]) | Plant response rating, Ryegrass, Italian (ryegrass, Italian [18]; [24]) | Plant response rating, Galium (galium; [26]) | Soybean plant response rating (soybean [19]; [25]) | Plant response rating, Soybean (soybean [19]; [26]) | Plant response rating, Pigweed, Palmer (pigweed, palmer [22]; [26])
80: Plant response rating, Ryegrass, Italian (ryegrass, Italian [3]; [26]) | Plant response rating, Blackgrass (blackgrass [4]; [26]) | Plant response rating, Ragweed (ragweed [11]; [26]) | Plant response rating, Ragweed (ragweed [13]; [24]) | Galium plant response rating (galium; [25]) | Plant response rating, Kochia (kochia [20]; [24])
40: Ryegrass, Italian plant response rating (ryegrass, Italian [3]; [25]) | Plant response rating, Soybean (soybean [5]; [23]) | Plant response rating, Blackgrass (blackgrass [7]; [24]) | Plant response rating, Wheat (wheat [12]; [24])
70: Plant response rating, Corn (corn [9]; [26]) | Kochia plant response rating (kochia [10]; [25]) | Goosegrass plant response rating (goosegrass [15]; [25]) | Plant response rating, Wheat (wheat [16]; [26]) | Plant response rating, Oat, Wild (oat, wild [17]; [26]) | Plant response rating, Ryegrass, Italian (ryegrass, Italian [18]; [23])
